# Key:
# [1] = parent drugs; cited from earlier work
# [2] = Stability testing of prodrugs in human plasma; assay type: in vitro ADME; conditions: 10 μM, ca. 37° C.
# Method: (§1) Pooled human plasma was obtained from Bioreclamation (East Meadow, N.Y.) by collection into sodium EDTA as the anticoagulant, and was stored at ca −20° C. prior to use. Prior to use, the plasma defrosted and was spun at ca. 3000 rpm for 5 minutes to remove any precipitate. The pH of the plasma was adjusted to pH 7.4 by careful addition of NaH2PO4 buffer.
# (§2) Plasma stability was assessed by incubation of 10 μM of each compound prepared in Examples 1-5 with human plasma, in duplicate, at ca. 37° C. with shaking. Each compound prepared in Examples 1-5 was also incubated at 10 μM in PBS as a control for compound heat stability. Aliquots were removed at 0, 0.5, 1 and 2 hours and stored at −20° C. until analysis.
# (§3) For analysis, plasma samples were extracted in 1 part acetonitrile and isolation of the supernatant. Analysis of each compound prepared in Examples 1-5 in plasma extracts was conducted by an LC-MS method at each time interval and quantification was achieved by comparison of the response due to the sample to that of a three point standard curve. Appearance of the parent drug the hydroxymetabolites were also monitored at each time interval. The % degradation following incubation at each time point was calculated by comparison of the parent concentration to that at 0 minutes.
# [3] = Stability testing of prodrugs in rat plasma (elevated esterase activity); assay type: in vitro ADME, Sprague-Dawley rat; conditions: 10 μM, ca. 37° C.
# Method: as §1, with “Sprague-Dawley rat” for “Pooled human”, “obtained” for “obtained from Bioreclamation (East Meadow, N.Y.)”
# as §2, with “rat” for “human”
# as §3, with “drug and” for “drug”
# [4] = Metabolic stability, microsomal incubations without inhibitor; assay type: in vitro ADME; conditions: 10 μM, 0.5 mg/mL microsomal protein
# Method: (§4) The metabolic stability of each compound prepared in Examples 1-5 was assessed in microsomal preparations obtained from BD Gentest (Woburn, Mass.).
# (§5) The metabolic stability of each compound prepared in Examples 1-5 was assessed in duplicate by incubation of 10 μM compound with 0.5 mg/mL microsomal protein, 1 mM in 0.1 M phosphate buffer, pH 7.4 in the presence and absence of a CYP3A4 inhibitor (ketoconazole). The reaction mixture was pre-incubated, in the absence of the microsomes, at ca. 37° C. for 5 minutes, followed by initiation of the incubation by the addition of microsomal protein and maintained at ca. 37° C. for a further 0, 30 and 60 minutes. After the appropriate incubation time, the mixtures were quenched by the addition of one volume of acetonitrile and the supernatant was isolated by centrifugation. Positive control incubations (7-ethoxycoumarin) were performed in the same manner as the compounds from Examples 1-5 and quenched after 0 and 30 minutes. In addition, negative control incubations were performed for 60 minutes in the absence of NADPH to assess chemical stability.
# (§6) Analysis of supernatants from each time interval was conducted for each compound prepared in Examples 1-5 by LC-MS analysis. Quantification of the disappearance on the parent drug was achieved by comparison of the sample response to that of a suitable standard curve constructed in 0.1 M phosphate buffer, pH 7.4. The standard curve ranged between ≦1% up to ≧100% of the dosing concentration.
# (§7) The % turnover following 60 minutes of incubation was calculated by comparison of the parent concentration to that at 0 minutes. The % degradation was calculated in the same manner from the negative control incubations. Appearance of the parent drug and the hydroxymetabolites were also monitored at each time interval.
# [5] = Metabolic stability, microsomal incubations with ketoconazole (CYP3A4 inhibitor); assay type: in vitro ADME; conditions: 10 μM, 0.5 mg/mL microsomal protein
# Method: as §4, §5, §6, §7
# [6] = target: T1, recombinant human CYP3A4 (Homo sapiens, UniProt P08684); test: Metabolic stability in the presence of CYP3A4 isozyme; assay type: in vitro ADME; conditions: 10 μm compound
# T1 construct: purchased BD Gentest (Woburn, Mass.)
# T1 sequence (P08684 whole entry): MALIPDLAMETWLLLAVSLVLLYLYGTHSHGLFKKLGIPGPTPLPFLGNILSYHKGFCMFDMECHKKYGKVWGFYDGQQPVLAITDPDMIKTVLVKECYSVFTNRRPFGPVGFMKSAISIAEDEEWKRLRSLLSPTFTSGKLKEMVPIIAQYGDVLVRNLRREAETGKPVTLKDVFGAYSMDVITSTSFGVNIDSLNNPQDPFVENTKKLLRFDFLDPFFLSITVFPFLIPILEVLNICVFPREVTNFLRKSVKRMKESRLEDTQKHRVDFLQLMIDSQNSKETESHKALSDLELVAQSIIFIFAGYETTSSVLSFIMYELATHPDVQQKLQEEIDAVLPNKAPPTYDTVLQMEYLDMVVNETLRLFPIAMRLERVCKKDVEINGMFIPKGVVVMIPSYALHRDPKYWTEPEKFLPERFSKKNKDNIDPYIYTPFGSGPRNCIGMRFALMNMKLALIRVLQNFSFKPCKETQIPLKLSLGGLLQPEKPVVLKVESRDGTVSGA
# Method: (§8) The metabolic stability of each compound prepared in Examples 1-5 was assessed in the presence of CYP2D6 and CYP3A4 obtained from BD Gentest (Woburn, Mass.).
# (§9) The metabolic stability of each compound prepared in Examples 1-5 was assessed in duplicate by incubation of 10 μm compound with recombinant human CYP2D6 and 3A4 using similar conditions to those in Example 9. Samples were removed for analysis at 0, 30 and 60 minutes and extracted with one volume of organic solvent. Appropriate controls were included. Quantification of the disappearance of the prodrug was conducted LC-MS. Appearance of metabolites was also monitored.
# [7] = target: CYP2D6 (Homo sapiens, UniProt P10635); test: Metabolic stability in the presence of CYP2D6 isozyme; assay type: in vitro ADME; set-up: purchased BD Gentest (Woburn, Mass.); conditions: 10 μm compound
# Chain of CYP2D6 (P10635 whole entry): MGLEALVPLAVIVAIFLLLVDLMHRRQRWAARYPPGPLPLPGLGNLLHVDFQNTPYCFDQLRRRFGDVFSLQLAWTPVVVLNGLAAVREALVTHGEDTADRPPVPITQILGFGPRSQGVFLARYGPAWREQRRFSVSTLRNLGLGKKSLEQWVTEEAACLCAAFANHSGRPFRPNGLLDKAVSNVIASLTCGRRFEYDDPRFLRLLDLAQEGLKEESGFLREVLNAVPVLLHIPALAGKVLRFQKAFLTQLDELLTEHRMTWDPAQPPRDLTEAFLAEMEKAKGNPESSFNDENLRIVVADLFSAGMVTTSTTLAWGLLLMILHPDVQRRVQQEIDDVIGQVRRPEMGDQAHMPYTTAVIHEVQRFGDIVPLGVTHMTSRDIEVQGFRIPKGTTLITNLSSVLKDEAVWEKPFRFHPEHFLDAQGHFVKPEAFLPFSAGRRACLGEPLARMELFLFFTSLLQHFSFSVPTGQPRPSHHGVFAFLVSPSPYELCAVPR
# Method: as §8, §9
# [8] = Stability testing in simulated gastric fluids; conditions: 10 μM, saline pH approximately 1 plus pepsin
# [9] = Stability testing in simulated intestinal fluids; conditions: 10 μM
smiles,measurement,setting,value
"CN(C)CCC=C1c2ccccc2COc2ccccc21 (mixture of isomers) [doxepin, Doxepin]",pKa,[1],8.00
"CCOP(=O)(OCC)N(C)CCCN1c2ccccc2CCc2ccccc21 [RIC-02, [3-(10,11-Dihydro-dibenzo[b,f]azepin-5-yl)-propyl]-methyl-phosphoramidic acid diethyl ester]",Loss of parent compound in human plasma (%),[2]; incubation time 0 min,0.00%
same,Loss of parent compound in human plasma (%),[2]; incubation time 30 min,−.43%
same,Loss of parent compound in human plasma (%),[2]; incubation time 60 min,9.94%
same,Loss of parent compound in human plasma (%),[2]; incubation time 120 min,7.93%
same,Loss of parent compound in rat plasma (%),[3]; incubation time 0 min,0.00%
same,Loss of parent compound in rat plasma (%),[3]; incubation time 30 min,4.67%
same,Loss of parent compound in rat plasma (%),[3]; incubation time 60 min,11.01%
same,Loss of parent compound in rat plasma (%),[3]; incubation time 120 min,9.02%
same,Loss of parent compound with no ketoconazole (%),[4]; incubation time 30 min,76.17%
same,Loss of parent compound with no ketoconazole (%),[4]; incubation time 60 min,91.40%
same,Loss of parent compound with ketoconazole (%),[5]; incubation time 30 min,−17.26%
same,Loss of parent compound with ketoconazole (%),[5]; incubation time 60 min,11.04%
same,Loss of parent compound with CYP3A4 isozyme (%),[6]; incubation time 0 min,0.00%
same,Loss of parent compound with CYP3A4 isozyme (%),[6]; incubation time 30 min,97.05%
same,Loss of parent compound with CYP3A4 isozyme (%),[6]; incubation time 60 min,98.62%
same,Loss of parent compound with CYP2D6 isozyme (%),[7]; incubation time 0 min,0.00%
same,Loss of parent compound with CYP2D6 isozyme (%),[7]; incubation time 30 min,13.19%
same,Loss of parent compound with CYP2D6 isozyme (%),[7]; incubation time 60 min,37.11%
same,Loss of parent compound in simulated gastric fluid (%),[8]; incubation time 0 min,0.00%
same,Loss of parent compound in simulated gastric fluid (%),[8]; incubation time 30 min,49.94%
same,Loss of parent compound in simulated gastric fluid (%),[8]; incubation time 60 min,74.67%
same,Loss of parent compound in simulated gastric fluid (%),[8]; incubation time 120 min,93.12%
same,Loss of parent compound in simulated intestinal fluid (%),"[9]; phosphate pH 6, incubation time 0 min",0.00%
same,Loss of parent compound in simulated intestinal fluid (%),"[9]; phosphate pH 6, incubation time 30 min",11.65%
same,Loss of parent compound in simulated intestinal fluid (%),"[9]; phosphate pH 6, incubation time 60 min",7.83%
same,Loss of parent compound in simulated intestinal fluid (%),"[9]; phosphate pH 6, incubation time 120 min",9.29%
CN(C)CCc1c[nH]c2ccc(C[C@H]3COC(=O)N3)cc12 [Zolmitriptan],pKa,[1],9.52
"CNCCC(Oc1ccccc1C)c1ccccc1 (stereo not drawn) [atomoxetine, Atomoxetine]",pKa,[1],10.12
"CN(C)CCOC(C)(c1ccccc1)c1ccc(Cl)cc1 (stereo not drawn) [chlorphenoxamine, Chlorphenoxamine]",pKa,[1],8.21
"COc1cc(N)c(Cl)cc1C(=O)NC1CCN(CCCOc2ccc(F)cc2)CC1OC (stereo not drawn) [cisapride, Cisapride]",pKa,[1],7.04
CN1CCC[C@@H]1CCO[C@](C)(c1ccccc1)c1ccc(Cl)cc1 [clemastine],pKa,[1],10.23
CN(C)CCCN1c2ccccc2CCc2ccc(Cl)cc21 [clomipramine],pKa,[1],9.50
"CN1CCN(C2=Nc3cc(Cl)ccc3Nc3ccccc32)CC1 [clozapine, Clozapine]",pKa,[1],8.20
CN1CCN(C(c2ccccc2)c2ccccc2)CC1 [cyclizine],pKa,[1],8.35
"CN(C)CCC=C1c2ccccc2C=Cc2ccccc21 [cyclobenzaprine, Cyclobenzaprine]",pKa,[1],9.21
"CN1CCC[C@@H]1Cc1c[nH]c2ccc(CCS(=O)(=O)c3ccccc3)cc12 [eletriptan, Eletriptan]",pKa,[1],10.13
"CN(C)CCC[C@@]1(c2ccc(F)cc2)OCc2cc(C#N)ccc21 [escitalopram, Escitalopram]",pKa,[1],9.60
"COc1ccc(OCC2CN(C)CCC2c2ccccc2)cc1 (stereo not drawn) [femoxetine, Femoxetine]",pKa,[1],9.00
"CN[C@@H]1CCc2[nH]c3ccc(C(N)=O)cc3c2C1 [frovatriptan, Frovatriptan]",pKa,[1],10.63
CNCCCC12CCC(c3ccccc31)c1ccccc12 [maprotiline],pKa,[1],10.20
Cc1cccc(CN2CCN(C(c3ccccc3)c3ccc(Cl)cc3)CC2)c1 (stereo not drawn) [meclizine],pKa,[1],7.32
COc1c(N2C[C@@H]3CCCN[C@@H]3C2)c(F)cc2c(=O)c(C(=O)O)cn(C3CC3)c12 [moxifloxacin],pKa,[1],10.01
CCc1nn(CCCN2CCN(c3cccc(Cl)c3)CC2)c(=O)n1CCOc1ccccc1 [nefazodone],pKa,[1],7.90
COc1cc(N)c(Cl)cc1C(=O)NC1CCNCC1OC (stereo not drawn) [norcisapride],pKa,[1],8.46
Fc1ccc(-n2cc(C3CCNCC3)c3cc(Cl)ccc32)cc1 [norsertindole],pKa,[1],10.61
CC1COc2c(N3CCN(C)CC3)c(F)cc3c(=O)c(C(=O)O)cn1c23 (stereo not drawn) [ofloxacin],pKa,[1],7.09
O=C1NC(=O)C(c2ccccc2)(c2ccccc2)N1 [phenytoin],pKa,[1],8.31
CC(N)C12CC3CC(CC(C3)C1)C2 (stereo not drawn) [rimantadine],pKa,[1],11.70
CN(C)CCc1c[nH]c2ccc(Cn3cncn3)cc12 [rizatriptan],pKa,[1],9.49
"O=C1NCCN1CCN1CCC(c2cn(-c3ccc(F)cc3)c3ccc(Cl)cc23)CC1 [sertindole, Sertindole]",pKa,[1],9.06
"CC(C)(C)c1ccc(C(O)CCCN2CCC(C(O)(c3ccccc3)c3ccccc3)CC2)cc1 (stereo not drawn) [terfenadine, Terfenadine]",pKa,[1],9.60
CN1CCN(CCCN2c3ccccc3Sc3ccc(C(F)(F)F)cc32)CC1 [trifluoperazine],pKa,[1],7.98
O=C1Cc2cc(CCN3CCN(c4nsc5ccccc45)CC3)c(Cl)cc2N1 [ziprasidone],pKa,[1],8.24

# Reference: patent publication US8088918B2, “Noncardiotoxic pharmaceutical compounds” (Williamsburg Holdings LLC, priority 2004, dated 2012)
